Tested on: calcium influx in Jurkat T-cells
Assay: Calcium imaging assay: store-depletion induced calcium influx in Jurkat T-cells
Assay type: cell-based, human
Settings: thapsigargin then 2 mM Ca2+; clofazimine preincubated 5 min
Experimental: JurkaT-cells were attached to L-lysine-coated glass dishes (MatTek). Cells were loaded with fura-2-AM (Invitrogen_F-1201) for 45 min before they were washed sequentially with growth medium and Ca^2+-free HBSS. Fluorescence excitation wavelengths were set at 350 and 380 nm, respectively, on a Zeiss Axiovert 200M microscope while emission wavelength was set at 510 nm. Changes in intracellular calcium concentrations were determined by fluorescence intensity ratio ([…]/F380).

[Gd] [gadolinium]
effect on calcium entry: abrogated calcium entry

Clc1ccc(COC(Cn2ccnc2)c2ccc(Cl)cc2Cl)cc1 (centres unmarked) [econazole]
effect on calcium entry: abrogated calcium entry

From patent publication US8669257B2, “Phenazine derivatives and uses thereof as potassium channel modulators” (The Johns Hopkins University, priority 2007, dated 2014)
